{"source": "paper PMC4300089", "about": "“Structure-Guided Design of Selective Epac1 and Epac2 Agonists” (PLoS Biology, 2015)", "key": {"Epac2": {"molecular_target": "T1, Epac2 (Mus musculus, UniProt Q9EQZ6)", "T1 construct": "pBabe-Flag-Epac2 (Epac2, mus musculus, amino acids 1–993); expressed in transfected cells; host or cells: U2OS", "T1 sequence (Q9EQZ6 1-993 isoform Q9EQZ6-3)": "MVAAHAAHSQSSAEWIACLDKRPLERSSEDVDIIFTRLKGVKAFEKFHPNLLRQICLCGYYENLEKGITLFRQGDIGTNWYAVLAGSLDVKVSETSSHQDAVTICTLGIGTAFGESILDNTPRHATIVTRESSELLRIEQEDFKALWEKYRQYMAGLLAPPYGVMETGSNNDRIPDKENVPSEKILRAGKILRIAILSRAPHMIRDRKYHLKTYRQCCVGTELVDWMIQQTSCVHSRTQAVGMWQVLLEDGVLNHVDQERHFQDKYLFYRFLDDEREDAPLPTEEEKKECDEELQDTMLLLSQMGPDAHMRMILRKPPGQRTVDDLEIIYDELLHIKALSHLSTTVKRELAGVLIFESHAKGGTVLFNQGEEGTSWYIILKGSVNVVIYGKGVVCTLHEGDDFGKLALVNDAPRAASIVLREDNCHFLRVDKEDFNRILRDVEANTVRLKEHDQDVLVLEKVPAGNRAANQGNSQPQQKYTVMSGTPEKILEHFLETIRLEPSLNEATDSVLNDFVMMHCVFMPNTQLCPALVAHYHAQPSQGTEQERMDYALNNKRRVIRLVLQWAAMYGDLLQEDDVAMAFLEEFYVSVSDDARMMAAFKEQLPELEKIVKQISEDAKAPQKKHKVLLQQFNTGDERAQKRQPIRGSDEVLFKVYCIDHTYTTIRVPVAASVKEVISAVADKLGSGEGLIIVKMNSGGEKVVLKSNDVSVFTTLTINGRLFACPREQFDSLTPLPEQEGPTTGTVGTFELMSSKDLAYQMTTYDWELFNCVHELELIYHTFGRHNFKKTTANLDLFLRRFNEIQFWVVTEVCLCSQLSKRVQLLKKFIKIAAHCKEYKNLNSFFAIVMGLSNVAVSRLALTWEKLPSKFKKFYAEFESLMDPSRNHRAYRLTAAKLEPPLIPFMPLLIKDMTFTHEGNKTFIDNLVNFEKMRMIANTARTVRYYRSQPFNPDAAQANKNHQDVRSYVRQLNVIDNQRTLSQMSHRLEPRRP", "experiment": "Cellular Epac activity: Rap•GTP levels in U2OS cells stably expressing Epac2", "assay_type": "cell-based, homo sapiens", "settings": "for rel. RapGTP: relative to induction with forskolin and IBMX, Fig. 6C", "experimental": "Rap•GTP levels were determined by precipitating GTP-bound Rap specifically from cell lysates and subsequent western Blotting with an α-Rap antibody (Santa Cruz Biotechnology). To generate stable cell lines, U2OS cells were transfected with pBabe-Flag-Epac1 (Epac1, homo sapiens, amino acids 1–881) or pBabe-Flag-Epac2 (Epac2, mus musculus, amino acids 1–993), selected for Epac expression and maintained under selection with 2 mg/l puromycin. The cells were cultured according to standard protocols. The activity of PKA was determined by western blotting with a monoclonal α-VASP antibody (BD Transduction Laboratories). Blots were developed by enhanced chemiluminescence (ECL) and the use of X-ray films; for quantification films were scanned. The intensities of the Rap•GTP bands and the upper band of VASP (P-VASP) were determined for each condition in ImageJ and normalized to the stimulation with forskolin and IBMX for each blot."}, "Epac1": {"molecular_target": "T2, Epac1 (Homo sapiens, UniProt O95398)", "T2 construct": "made in house", "T2 sequence (O95398 150-881 isoform O95398-3)": "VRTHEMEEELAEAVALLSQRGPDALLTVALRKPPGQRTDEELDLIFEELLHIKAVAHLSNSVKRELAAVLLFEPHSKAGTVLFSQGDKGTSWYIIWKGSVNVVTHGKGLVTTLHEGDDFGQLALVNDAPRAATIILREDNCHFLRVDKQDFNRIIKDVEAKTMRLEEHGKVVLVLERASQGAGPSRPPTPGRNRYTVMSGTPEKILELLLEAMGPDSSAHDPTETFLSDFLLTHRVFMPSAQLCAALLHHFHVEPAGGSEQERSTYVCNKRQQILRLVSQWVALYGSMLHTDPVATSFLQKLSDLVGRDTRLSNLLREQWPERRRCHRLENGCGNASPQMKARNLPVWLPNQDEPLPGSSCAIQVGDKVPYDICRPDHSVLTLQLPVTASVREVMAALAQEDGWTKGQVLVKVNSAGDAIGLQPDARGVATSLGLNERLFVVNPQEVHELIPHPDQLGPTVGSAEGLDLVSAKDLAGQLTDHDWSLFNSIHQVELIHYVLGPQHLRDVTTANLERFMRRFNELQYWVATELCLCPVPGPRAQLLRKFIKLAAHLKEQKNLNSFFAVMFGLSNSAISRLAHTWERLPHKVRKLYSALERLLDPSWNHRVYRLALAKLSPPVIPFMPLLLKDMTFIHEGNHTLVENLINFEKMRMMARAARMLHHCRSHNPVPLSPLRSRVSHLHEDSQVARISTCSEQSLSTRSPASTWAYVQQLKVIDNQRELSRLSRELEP", "set-up": "method as in PMID 12888551", "settings": "footnote c, see also ref 13; cited from earlier work"}}}
{"compound": "COC1C2OP(=O)(O)OCC2OC1n1c(Sc2ccc(Cl)cc2)nc2c(N)ncnc21", "note": "[D-007, 8-pCPT-2′-O-Me-cAMP, reference compound]", "values": [{"measurement": "activation of Epac2 in cells", "setting": "Epac2", "result": "only minor effects"}, {"measurement": "rel. RapGTP", "setting": "Epac2", "result": 0.3431}, {"measurement": "AC50", "setting": "Epac1", "result": 1.8, "unit": "µM"}]}
{"compound": "Nc1ncnc2c1nc(Sc1ccc(Cl)cc1)n2[C@@H]1O[C@@H]2COP(=O)(O)O[C@H]2[C@H]1O", "note": "[L-026, 8-pCPT-cAMP]", "values": [{"measurement": "rel. RapGTP", "setting": "Epac2", "result": 0.7828}, {"measurement": "AC50", "setting": "Epac1", "result": 0.9, "unit": "µM"}]}
{"compound": "Nc1ncnc2c1ncn2C1OC2COP(O)(=S)OC2C1O", "note": "(stereo not drawn) [S-000, Sp-cAMPS]", "values": [{"measurement": "AC50", "setting": "Epac1", "result": 90, "unit": "µM"}, {"measurement": "Rel. kmax", "setting": "Epac1", "result": "1.4^c"}]}
{"compound": "Nc1ncnc2c1nc(SCc1ccccc1)n2[C@@H]1O[C@@H]2CO[P@](O)(=S)O[C@H]2[C@H]1O", "note": "[S-220, Sp-8-BnT-cAMPS]", "values": [{"measurement": "activation of Epac2 in cells", "setting": "Epac2", "result": "efficiently activated"}, {"measurement": "rel. RapGTP", "setting": "Epac2", "result": 1.2025}]}
